Laboratory results from US20110195929A1, “COMPOUNDS FOR THE TREATMENT OF FLAVIVIRAL INFECTIONS” (SUMMIT CORPORATION PLC, priority 2008, published 2011).

Each molecule was assayed on HCV (assay: Cell-based HCV infection NS3 protease FRET assay in DMSO-Huh7 cells). Conditions: not given.
Design: species or system hepatitis C virus (HCV)
Note: test concentration or dose not given here.

| Compound | Ave % inhibition |
| --- | --- |
| CCCCCCCCCN1C[C@H](O)[C@@H](O)[C@H](O)[C@H]1CO [Compound 550, (2R,3R,4R,5S)-2-(hydroxymethyl)-1-nonylpiperidine-3,4,5-triol] | ++ (++: 20-39%) |
| CC1(C)O[C@H]2[C@@H](CN=[N+]=[N-])NC[C@H]2O1 [Compound 671, (3aS,4R,6aR)-4-(azidomethyl)-2,2-dimethyltetrahydro-3aH-[1,3]dioxolo[4,5-c]pyrrole] | ++ (++: 20-39%) |

Same assay, conditions: DMSO-Huh7 cells infected with HCV at 0.05 ffu/cell; HCV NS3 protein levels by FRET, day 6 p.i.

| Compound | Ave % inhibition |
| --- | --- |
| OCCCCCCCCCN1[C@H](CO)[C@@H](O)[C@H](O)[C@H]1CO [Compound 557, (2R,3R,4R,5R)-2,5-bis(hydroxymethyl)-1-(9-hydroxynonyl)pyrrolidine-3,4-diol] | ++ (++: 20-39%) |
| OC[C@@H]1[C@@H](O)[C@H](O)[C@@H](CO)N1Cc1ccc(-c2ccccc2)cc1 [Compound 558, (2R,3R,4R,5R)-1-(biphenyl-4-ylmethyl)-2,5-bis(hydroxymethyl)pyrrolidine-3,4-diol] | +++ (+++: 40-59%) |
| OC[C@@H]1[C@@H](O)[C@H](O)[C@@H](CO)N1Cc1ccc(-c2ccccc2)cc1 [Compound 559, (2R,3R,4R,5R)-1-(biphenyl-4-ylmethyl)-2,5-bis(hydroxymethyl)pyrrolidine-3,4-diol] | ++++ (++++: 60-79%) |
| C[C@@H](N)CCC[C@@H]1N[C@@H](CO)[C@H](O)[C@H]1O [Compound 561, (2S,3S,4S,5S)-2-((R)-4-aminopentyl)-5-(hydroxymethyl)pyrrolidine-3,4-diol] | ++++ (++++: 60-79%) |
| C[C@H](N)CCC[C@@H]1N[C@@H](CO)[C@H](O)[C@H]1O [Compound 562, (2S,3S,4S,5S)-2-((S)-4-aminopentyl)-5-(hydroxymethyl)pyrrolidine-3,4-diol] | ++++ (++++: 60-79%) |
| CC(=O)N[C@@H]1CNC[C@@H](O)[C@H]1O [Compound 563, N-((3R,4S,5R)-4,5-dihydroxypiperidin-3-yl)acetamide] | ++++ (++++: 60-79%) |
| CCCCCCCCCN1C[C@H](O)[C@H](O)[C@@H]1CNC(C)=O [Compound 587, N-(((2S,3R,4S)-3,4-dihydroxy-1-nonylpyrrolidin-2-yl)methyl)acetamide] | +++ (+++: 40-59%) |
| CC(=O)NC[C@H]1[C@@H](O)[C@@H](O)CN1CCN1CCCCC1 [Compound 616, N-(((2S,3R,4S)-3,4-dihydroxy-1-(2-(piperidin-1-yl)ethyl)pyrrolidin-2-yl)methyl)acetamide] | ++ (++: 20-39%) |
| CCCCCCCCCN1C[C@H](O)[C@H](O)[C@@H]1CNC(=O)c1ccccc1 [Compound 622, N-(((2S,3R,4S)-3,4-dihydroxy-1-nonylpyrrolidin-2-yl)methyl)benzamide] | +++++ (+++++: ≧80%) |
| OC[C@H]1[C@H](O)[C@H](O)CN1Cc1ccc(-c2ccccc2)cc1 [Compound 623, (2S,3S,4R)-1-(biphenyl-4-ylmethyl)-2-(hydroxymethyl)pyrrolidine-3,4-diol] | ++ (++: 20-39%) |
| CCCCCCCCCN1C[C@@H]2OC(C)(C)O[C@@H]2[C@@H]1CNC(C)=O [Compound 630, N-(((3aR,4S,6aS)-2,2-dimethyl-5-nonyltetrahydro-3aH-[1,3]dioxolo[4,5-c]pyrrol-4-yl)methyl)acetamide] | ++ (++: 20-39%) |
| CC1(C)O[C@H]2[C@H](CN(Cc3ccc(-c4ccccc4)cc3)[C@H]2CNC(=O)C(F)(F)F)O1 [Compound 632, N-(((3aR,4S,6aS)-5-(biphenyl-4-ylmethyl)-2,2-dimethyltetrahydro-3aH-[1,3]dioxolo[4,5-c]pyrrol-4-yl)methyl)-2,2,2-trifluoroacetamide] | ++ (++: 20-39%) |
| O=C(NC[C@H]1[C@@H](O)[C@@H](O)CN1CCN1CCOCC1)c1ccccc1 [Compound 633, N-(((2S,3R,4S)-3,4-dihydroxy-1-(2-morpholinoethyl)pyrrolidin-2-yl)methyl)benzamide] | +++ (+++: 40-59%) |
| O=C(NC[C@@H]1[C@@H](O)[C@@H](O)CN1Cc1ccc(-c2ccccc2)cc1)c1ccccc1 [Compound 649, N-(((2R,3R,4S)-1-(biphenyl-4-ylmethyl)-3,4-dihydroxypyrrolidin-2-yl)methyl)benzamide] | +++ (+++: 40-59%) |
| CC1(C)O[C@H]2[C@H](CN(Cc3ccccc3)[C@H]2CNC(=O)c2ccc(-c3ccccc3)cc2)O1 [Compound 652, N-(((3aR,4S,6aS)-5-benzyl-2,2-dimethyltetrahydro-3aH-[1,3]dioxolo[4,5-c]pyrrol-4-yl)methyl)biphenyl-4-carboxamide] | +++++ (+++++: ≧80%) |
| O=C(NC[C@H]1[C@@H](O)[C@@H](O)CN1CCCCCCCCCO)c1ccc(-c2ccccc2)cc1 [Compound 660, N-(((2S,3R,4S)-3,4-dihydroxy-1-(9-hydroxynonyl)pyrrolidin-2-yl)methyl)biphenyl-4-carboxamide] | +++ (+++: 40-59%) |
| CN(C)CCN1C[C@H](O)[C@H](O)[C@@H]1CNC(=O)c1ccccc1 [Compound 667, N-(((2S,3R,4S)-1-(2-(dimethylamino)ethyl)-3,4-dihydroxypyrrolidin-2-yl)methyl)benzamide] | ++ (++: 20-39%) |
| CCCC(=O)NC[C@@H]1[C@@H](O)[C@@H](O)CN1Cc1ccccc1 [Compound 669, N-(((2R,3R,4S)-1-benzyl-3,4-dihydroxypyrrolidin-2-yl)methyl)butyramide] | ++ (++: 20-39%) |

| Compound | Ave % inhibition |
| --- | --- |
| O=C(NC[C@@H]1NC[C@H](O)[C@@H]1O)c1ccc(-c2ccccc2)cc1 [Compound 670, N-(((2S,3R,4S)-3,4-dihydroxypyrrolidin-2-yl)methyl)biphenyl-4-carboxamide] | +++++ (+++++: ≧80%) |
| O=C(NC[C@@H]1[C@@H](O)[C@@H](O)CN1Cc1ccccc1)c1ccc(-c2ccccc2)cc1 [Compound 673, N-(((2R,3R,4S)-1-benzyl-3,4-dihydroxypyrrolidin-2-yl)methyl)biphenyl-4-carboxamide] | ++ (++: 20-39%) |
| O=C(NC[C@@H]1NC[C@H](O)[C@@H]1O)C(F)(F)F [Compound 674, N-(((2S,3R,4S)-3,4-dihydroxypyrrolidin-2-yl)methyl)-2,2,2-trifluoroacetamide] | ++ (++: 20-39%) |
| CC1(C)O[C@H]2[C@H](CN(CCN3CCOCC3)[C@H]2CNC(=O)C(F)(F)F)O1 [Compound 675, N-(((3aR,4S,6aS)-2,2-dimethyl-5-(2-morpholinoethyl)tetrahydro-3aH-[1,3]dioxolo[4,5-c]pyrrol-4-yl)methyl)-2,2,2-trifluoroacetamid] | ++ (++: 20-39%) |
| CCCCN1C[C@@H]2OC(C)(C)O[C@@H]2[C@@H]1CNC(=O)C(F)(F)F [Compound 676, N-(((3aR,4S,6aS)-5-butyl-2,2-dimethyltetrahydro-3aH-[1,3]dioxolo[4,5-c]pyrrol-4-yl)methyl)-2,2,2-trifluoroacetamide] | ++ (++: 20-39%) |
| CC1(C)O[C@H]2[C@H](CN(CCN3CCCCC3)[C@H]2CNC(=O)C(F)(F)F)O1 [Compound 677, N-(((3aR,4S,6aS)-2,2-dimethyl-5-(2-(piperidin-1-yl)ethyl)tetrahydro-3aH-[1,3]dioxolo[4,5-c]pyrrol-4-yl)methyl)-2,2,2-trifluoroacetamide] | ++ (++: 20-39%) |
| CN(C)CCN1C[C@@H]2OC(C)(C)O[C@@H]2[C@@H]1CNC(=O)C(F)(F)F [Compound 678, N-(((3aR,4S,6aS)-5-(2-(dimethylamino)ethyl)-2,2-dimethyltetrahydro-3aH-[1,3]dioxolo[4,5-c]pyrrol-4-yl)methyl)-2,2,2-trifluoroacetamide] | ++ (++: 20-39%) |
| NC[C@H]1[C@@H](O)[C@@H](O)CN1Cc1ccc(-c2ccccc2)cc1 [Compound 686, (2S,3R,4S)-2-(aminomethyl)-1-(biphenyl-4-ylmethyl)pyrrolidine-3,4-diol] | +++ (+++: 40-59%) |
| COCCOCCN1C[C@H](O)[C@H](O)[C@@H]1CNC(=O)c1ccc(-c2ccccc2)cc1 [Compound 688, N-(((2S,3R,4S)-3,4-dihydroxy-1-(2-(2-methoxyethoxy)ethyl)pyrrolidin-2-yl)methyl)biphenyl-4-carboxamide] | +++ (+++: 40-59%) |
| CCCCN1C[C@H](O)[C@H](O)[C@H]1CNC(=O)CCC [Compound 689, N-(((2R,3R,4S)-1-butyl-3,4-dihydroxypyrrolidin-2-yl)methyl)butyramide] | + (+: ≦19%) |
| O[C@H]([C@H]1[C@@H](O)[C@H](O)CN1Cc1ccccc1)[C@H](O)CNCc1ccccc1 [Compound 698, (2S,3R,4R)-1-benzyl-2-((1R,2R)-3-(benzylamino)-1,2-dihydroxypropyl)pyrrolidine-3,4-diol] | ++ (++: 20-39%) |
| O[C@@H]1[C@H]([C@@H](O)CNCc2ccccc2)N(Cc2ccccc2)C[C@@H]1O [Compound 700, (2S,3R,4S)-1-benzyl-2-((S)-2-(benzylamino)-1-hydroxyethyl)pyrrolidine-3,4-diol] | ++ (++: 20-39%) |
| O=C(NC[C@H]1[C@@H](O)[C@@H](O)CN1CCN1CCOCC1)c1ccc(-c2ccccc2)cc1 [Compound 702, N-(((2S,3R,4S)-3,4-dihydroxy-1-(2-morpholinoethyl)pyrrolidin-2-yl)methyl)biphenyl-4-carboxamide] | ++++ (++++: 60-79%) |
| OC[C@@H](O)[C@H](O)[C@H]1[C@@H](O)[C@H](O)CN1Cc1ccccc1 [Compound 703, (1R,2R)-1-((2R,3R,4R)-1-benzyl-3,4-dihydroxypyrrolidin-2-yl)propane-1,2,3-triol] | ++ (++: 20-39%) |
| CC1(C)O[C@H]([C@H]2[C@@H](O)[C@H](O)CN2Cc2ccccc2)[C@@H](CNCc2ccccc2)O1 [Compound 704, (2R,3R,4R)-1-benzyl-2-((4R,5R)-5-((benzylamino)methyl)-2,2-dimethyl-1,3-dioxolan-4-yl)pyrrolidine-3,4-diol] | ++++ (++++: 60-79%) |
| COC(=O)[C@H]1C[C@H](O)CN1C(=O)OC(C)(C)C [Compound 713, (2R,4S)-1-tert-butyl 2-methyl 4-hydroxypyrrolidine-1,2-dicarboxylate] | ++ (++: 20-39%) |
| [N-]=[N+]=N[C@@H]1C[C@H](CO)N(CCCO)C1 [Compound 717, ′3-((2R,4R)-4-azido-2-(hydroxymethyl)pyrrolidin-1-yl)propan-1-ol] | +++++ (+++++: ≧80%) |
